Experimental data: ChEMBL document CHEMBL4834393, “Building a Chemical Toolbox for Human Pregnane X Receptor Research: Discovery of Agonists, Inverse Agonists, and Antagonists Among Analogs Based on the Unique Chemical Scaffold of SPA70” (J Med Chem, 2021)
Activity calls are given as the source filed them. No cut-off for these calls is given here.

Legend:
[1] = system: HepG2; assay: Cytotoxicity against human HepG2 cells co-expressing luciferase gene under control of CYP3A4 promoter measured after 24 hrs by CellTiter-Glo luminescent cell viability assay; format: ADME, cell-based; settings: human, hepg2, 24 h; time 24 hrs
[2] = molecular target: T1, Vitamin D3 receptor (Homo sapiens) (UniProt P11473); assay: Antagonist activity at human VDR expressed in HEK293T cells in presence of 1alpha,25-dihydroxyvitamin D3 by luciferase reporter assay; format: cell-based
T1 sequence (whole entry): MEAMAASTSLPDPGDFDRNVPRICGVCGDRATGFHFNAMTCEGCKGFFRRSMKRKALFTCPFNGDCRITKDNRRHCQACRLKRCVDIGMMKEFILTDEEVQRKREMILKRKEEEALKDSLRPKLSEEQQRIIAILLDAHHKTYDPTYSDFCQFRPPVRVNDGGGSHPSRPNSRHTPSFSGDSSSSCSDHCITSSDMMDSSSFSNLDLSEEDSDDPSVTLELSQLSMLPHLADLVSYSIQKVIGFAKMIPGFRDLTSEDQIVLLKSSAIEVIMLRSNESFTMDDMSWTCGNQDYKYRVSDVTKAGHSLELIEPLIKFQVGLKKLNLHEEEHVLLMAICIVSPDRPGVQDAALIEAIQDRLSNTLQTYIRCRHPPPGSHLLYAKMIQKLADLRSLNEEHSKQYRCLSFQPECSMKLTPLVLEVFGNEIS

[3] = molecular target: T2, PXR (NR1I2) (Homo sapiens, UniProt O75469); assay: Displacement of BODIPY FL vindoline from GST-tagged human PXR LBD at 10 uM incubated for 60 mins by TR-FRET assay relative to control; settings: GST-tagged human PXR LBD (recombinant protein), probe BODIPY FL vindoline
T2 sequence (O75469 whole entry): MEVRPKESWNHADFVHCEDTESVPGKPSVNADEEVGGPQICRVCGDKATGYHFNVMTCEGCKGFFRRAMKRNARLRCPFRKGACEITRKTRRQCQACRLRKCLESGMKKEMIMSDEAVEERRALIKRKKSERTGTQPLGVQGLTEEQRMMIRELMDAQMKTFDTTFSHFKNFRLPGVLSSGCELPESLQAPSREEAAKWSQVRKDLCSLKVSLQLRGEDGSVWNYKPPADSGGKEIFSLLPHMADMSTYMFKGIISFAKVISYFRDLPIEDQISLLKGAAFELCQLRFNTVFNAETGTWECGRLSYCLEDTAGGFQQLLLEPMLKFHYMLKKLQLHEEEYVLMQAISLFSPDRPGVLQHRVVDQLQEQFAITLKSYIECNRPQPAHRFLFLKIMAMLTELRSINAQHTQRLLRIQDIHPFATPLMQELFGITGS

[4] = molecular target: T3, Nuclear receptor subfamily 1 group I member 2 (Homo sapiens, UniProt O75469); assay: Displacement of BODIPY FL vindoline from GST-tagged human PXR LBD incubated for 60 mins by TR-FRET assay
T3 sequence (O75469 whole entry): T2 sequence (O75469 whole entry)

[5] = molecular target: T4, Bile acid receptor (Homo sapiens) (UniProt Q96RI1); assay: Antagonist activity at human FXR expressed in HEK293T cells in presence of GW4064 by luciferase reporter assay; format: cell-based
T4 sequence (whole entry): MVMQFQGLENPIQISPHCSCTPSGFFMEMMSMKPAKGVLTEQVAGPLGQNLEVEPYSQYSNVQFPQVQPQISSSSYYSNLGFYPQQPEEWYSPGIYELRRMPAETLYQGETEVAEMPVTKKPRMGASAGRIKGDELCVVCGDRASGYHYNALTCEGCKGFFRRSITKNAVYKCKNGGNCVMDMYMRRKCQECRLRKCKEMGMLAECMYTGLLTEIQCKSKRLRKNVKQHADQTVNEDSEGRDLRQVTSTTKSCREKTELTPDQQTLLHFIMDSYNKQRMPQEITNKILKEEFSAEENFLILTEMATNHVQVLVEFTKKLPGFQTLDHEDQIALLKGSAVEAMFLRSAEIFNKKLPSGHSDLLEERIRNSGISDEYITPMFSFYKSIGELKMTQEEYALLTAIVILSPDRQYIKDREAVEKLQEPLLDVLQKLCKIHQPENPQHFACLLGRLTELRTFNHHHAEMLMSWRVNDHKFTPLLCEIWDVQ

[6] = molecular target: T1, Vitamin D3 receptor (Homo sapiens); assay: Agonist activity at human VDR expressed in HEK293T cells by luciferase reporter assay; format: cell-based
[7] = molecular target: T5, Nuclear receptor subfamily 1 group I member 2 (Mus musculus, UniProt O54915); assay: Antagonist activity at mouse PXR in presence of PCN by luciferase reporter assay
T5 sequence (O54915 whole entry): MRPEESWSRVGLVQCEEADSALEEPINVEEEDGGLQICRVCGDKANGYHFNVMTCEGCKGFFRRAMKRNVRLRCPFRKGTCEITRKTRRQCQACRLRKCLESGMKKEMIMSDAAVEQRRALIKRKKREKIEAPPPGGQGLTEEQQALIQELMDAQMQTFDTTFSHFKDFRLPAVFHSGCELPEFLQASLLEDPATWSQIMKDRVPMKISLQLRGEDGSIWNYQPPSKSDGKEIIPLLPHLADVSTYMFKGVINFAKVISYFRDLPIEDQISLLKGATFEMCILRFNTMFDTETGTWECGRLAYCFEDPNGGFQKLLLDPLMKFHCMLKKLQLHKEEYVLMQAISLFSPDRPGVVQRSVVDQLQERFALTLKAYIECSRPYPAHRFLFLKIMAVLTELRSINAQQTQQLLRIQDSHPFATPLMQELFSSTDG

[8] = molecular target: T2, PXR (NR1I2); assay: Inhibition of human PXR expressed in HepG2 cells co-expressing luciferase gene under control of CYP3A4 promoter at 10 uM incubated for 24 hrs in presence of 5 uM rifampicin by luciferase reporter assay relative to control; format: cell-based
[9] = molecular target: T4, Bile acid receptor (Homo sapiens); assay: Agonist activity at human FXR expressed in HEK293T cells by luciferase reporter assay; format: cell-based
[10] = system: constitutive androstane receptor, NR1I3 (Homo sapiens); assay: Agonist activity at human CAR by luciferase reporter assay
[11] = molecular target: T3, Nuclear receptor subfamily 1 group I member 2; assay: Agonist activity at human PXR expressed in HepG2 cells co-expressing luciferase gene under control of CYP3A4 promoter incubated for 24 hrs by luciferase reporter assay
[12] = molecular target: T2, PXR (NR1I2); assay: Agonist activity at human PXR expressed in HepG2 cells co-expressing luciferase gene under control of CYP3A4 promoter at 10 uM incubated for 24 hrs by luciferase reporter assay relative to control
[13] = molecular target: T3, Nuclear receptor subfamily 1 group I member 2; assay: Antagonist activity at human PXR expressed in HepG2 cells co-expressing luciferase gene under control of CYP3A4 promoter incubated for 24 hrs in presence of 5 uM rifampicin by luciferase reporter assay
[14] = molecular target: T5, Nuclear receptor subfamily 1 group I member 2; assay: Agonist activity at mouse PXR by luciferase reporter assay; format: ADME

SMILES	Activity [1]	Activity [2]	inhibition at 1 h, 10 µM [3]	IC50 [4]	Activity [5]	Activity [6]	Activity [7]	inhibition at 24 h, 10 µM [8]	Activity [9]	Activity [10]	EC50 [11]	activity at 24 h, 10 µM [12]	IC50 [13]	Activity [14]
COc1ccc(F)cc1-n1nnc(S(=O)(=O)c2ccc(C(C)(C)C)cc2)c1C	Non-Toxic	inactive	80%	400 nM	inactive	inactive	Not Active	70%	inactive	inactive	240 nM	37%	700 nM	
COc1ccc(Cl)cc1-n1nnc(S(=O)(=O)c2ccc(C(C)(C)C)cc2)c1C#N	Non-Toxic	inactive	90%	61 nM	inactive	inactive	Not Active		inactive	inactive	80 nM	105%		Not Active
CCc1c(S(=O)(=O)c2ccc(C(C)(C)C)cc2)nnn1-c1cc(OC)ccc1OC	Non-Toxic						Not Active			inactive				Not Active
